Details of series [1]: method as in PMID 22099048. To be noted: humans, after intravenous injection; cited from earlier work.
On the set-up of series [2]: method as in PMID 22099048. As to conditions: cited from earlier work.
Details of series [3]: method as in PMID 22099048. To be noted: rats, after intravenous injection; cited from earlier work.
A short description of series [4]: Plasma pharmacokinetics in vivo. As to conditions: SD, rat, rats. On the procedure:
SD rats (n = 6) were intragastrically administered Cbz-dFdC (22 mg/kg) and intravenously injected with dFdC (15 mg/kg), and 150 μL blood samples were collected from the retro-orbital route in the right eye at 0, 5, 10, 20, and 30 min and at 1, 2, 4, 6, 12, 24, and 48 h, using heparinized tubes. Without delay, the blood was directly centrifuged at 8000× g at 4 °C for 5 min. Then, the supernatant plasma was collected and immediately extracted using a previously established method or was frozen at −80 °C until further analysis.

The subject of series [5] is human HepG2 cell line. The series is described as follows: CCK-8 tumor cell growth inhibition assay. It is filed as cell-based. As to conditions: HepG2, CCK-8, concentration-dependent. On the procedure: (§1) The cells were cultured on a 96-well plate for 4 h for each well. Then, dimethyl sulfoxide solution containing 0.1–100 mM of Cbz-dFdC and dFdC was diluted 1000 times with the medium before administration. A total of 200 uL of medium containing Cbz-dFdC and dFdC was added per well (n = 6). The medium with drugs was discarded, and 10% CCK-8 solution was added. Then, the absorbance value was read at a wavelength of 450 nm after incubation at 37 °C, for 30 min. The drug concentration of Cbz-dFdC and dFdC in cell were determined by a previously established method.

The subject of series [6] is HepG2 cells. The series is described as follows: Cell uptake in HepG2 cells. It is filed as cell-based, human. On the procedure: as §1
Series [7] relates to cytidine kinase. Also on record: method as in PMID 1718594, PMID 1740680, PMID 8033147, PMID 12127861, PMID 23230131. To be noted: after intravenous injection; cited from earlier work.
The nature of series [8]: Tissue distribution (liver, kidney, intestine). It is filed as in vivo, SD rats. To be noted: rats; drug concentration in tissue lower than plasma concentration. The method, then: In order to investigate the drug distribution in different tissues and the relationship between CES1 activity and tissue concentration, we conducted tissue distribution experiments. The SD rats were divided into six groups (n = 6 for each group). After a single intragastric administration of Cbz-dFdC (22 mg/kg) and a single injected administration of dFdC (15 mg/kg), the SD rats were sacrificed at 0.5 h, 1.5 h, and 4 h, and the liver, kidney, and intestine were collected. The liver was perfused with ice-cold normal saline and then removed, followed by ice-cold normal saline cleaning. The kidney and intestine were directly removed and then washed with ice-cold normal saline. All of the above operations were carried out on ice, and the removed tissue was stored in an ice bath. The liver, kidney, and intestine were cut and crushed, homogenized with an appropriate amount of phosphate buffer by a homogenizer, and then diluted 5 times with ice-cold PBS buffer (in an ice bath). The tissue homogenates were determined with a BCA kit for protein concentration, a CES1 kit for CES1 activity, and UFLC–MS/MS for drug tissue concentration after pretreatment; the pretreatment method was reported previously.

Substrate in series [9]: O=C(Nc1ccn([C@@H]2O[C@H](CO)[C@@H](O)C2(F)F)c(=O)n1)OCc1ccccc1
The series can be described thus: Enzymatic kinetics in vitro, human CES1 recombinase. It is filed as in vitro ADME. To be noted: other: Human CES1 Recombinase, 37 °C, 30 min, 5–200 μM Cbz-dFdC. The method, then:
The SD rats without any treatment were sacrificed after adapting to the environment. Blank blood, the liver, the kidney, and the intestine were collected and treated as described in Section 4.4. Part of the homogenate was removed for centrifugation for 20 min at 9000× g at 4 °C, and the supernatant was obtained as tissue S9. The tissue homogenate and S9 were diluted to […] after the protein concentration was determined by the BCA kit (Abcam, Cambridge, MA, USA). Each matrix consisted of 45 uL of the matrix mixed with 5 uL of the drug dissolved in normal saline solution for about 3 min, followed by incubation at 37 °C in a water bath. Then, acetonitrile containing the internal standard was added to terminate the reaction. Human tissue S9 and human CES1 recombinase purchased from the Ruid Liver Disease Research Co., Ltd. (Shanghai, China) were incubated under the same conditions. An enzyme kinetic study was obtained from the matrix following incubation at 37 °C for 30 min with 5, 10, 20, 50, 100, or 200 μM of Cbz-dFdC. We estimated the parameters and simulated curves according to the Eadie–Hofstee method.

[10] abbreviates: iv, plasma, after i.v. dFdC 15 mg/kg.
Where [11] appears, read: plasma, 15 mg/kg, after dFdC intravenous injection.
The mark [12] stands for this setting: plasma, oral, 22 mg/kg, dFdC metabolized from Cbz-dFdC after i.g. Cbz-dFdC.
Where [13] appears, read: po, plasma analyte after i.g. Cbz-dFdC 22 mg/kg.

The source of these data is paper PMC7248705, “A Pharmacokinetic and Pharmacodynamic Evaluation of the Anti-Hepatocellular Carcinoma Compound 4-N-Carbobenzoxy-gemcitabine (Cbz-dFdC)” (Molecules, 2020).

Where two headings read alike, the source gives them in different places.

The half-life is how long it takes for the measured level to halve. The term AUC(0-inf) denotes total exposure, with the tail of the curve extrapolated. Lower therefore signals less exposure. One may read the Cmax as the highest concentration seen after dosing. Broadly, the Tmax is the time from dosing to the highest level. Broadly, the Km is the substrate concentration at which the rate is half of its maximum.

`Nc1ccn([C@@H]2O[C@H](CO)[C@@H](O)C2(F)F)c(=O)n1` [dFdC, Gemcitabine]: the half-life in series [1] was 12 min; in series [3], 2.0 h; in series [4] (setting [10]), 634 ± 112 min; in series [4] (setting [13]), 626 ± 54.6 min. In series [2], the “toxic effects on the gastrointestinal tract” value is “serious toxic effects on the gastrointestinal tract”. The AUC(0-inf) turned out to be 22700 ng·h/mL in [4] (setting [10]) and 27500 ng·h/mL in series [4] (setting [13]). The Cmax in series [4] (setting [10]) amounted to 14100 ng/mL; in series [4] (setting [13]), 1660 ± 432 ng/mL. Besides, the Tmax was 0.083 h in series [4] (setting [10]) and 4 h in series [4] (setting [13]). The concentration at 12 h in series [4] (setting [11]) is approximately 200 ng/mL; in [4] (setting [12]), approximately 600 ng/mL. For the same molecule, the figures for the concentration at 48 h in series [4] (setting [11]) and in series [4] (setting [12]) were approximately 40 ng/mL and approximately 130 ng/mL, respectively. Moreover, the concentration at 24 h is approximately 130 ng/mL in series [4] (plasma, intravenous, after i.v. dFdC 15 mg/kg) and approximately 300 ng/mL in [4] (plasma, oral, 22 mg/kg, after i.g. Cbz-dFdC). Further, the C0 in series [4] (plasma, iv, after i.v. dFdC 15 mg/kg, read-out: initial plasma concentration) was approximately 15000 ng/mL. The “cytotoxicity / tumor cell growth inhibition” value in series [5] is given as “better than that of Cbz-dFdC”. Further, in series [6], the “intracellular concentration (cell uptake)” value is “higher than that of dFdC, after the Cbz-dFdC treatment”. The “active monophosphate, diphosphate and triphosphate metabolites, share of the dose” value in [7] is “about 10%”. Moreover, in [8], the tissue penetration result is “weak tissue penetration”.

B1: Human CES1 Recombinase (Homo sapiens) (protein)
chain: GHPSSPPVVDTVHGKVLGKFVSLEGFAQPVAIFLGIPFAKPPLGPLRFTPPQPAEPWSFVKNATSYPPMCTQDPKAGQLLSELFTNRKENIPLKLSEDCLYLNIYTPADLTKKNRLPVMVWIHGGGLMVGAASTYDGLALAAHENVVVVTIQYRLGIWGFFSTGDEHSRGNWGHLDQVAALRWVQDNIASFGGNPGSVTIFGESAGGESVSVLVLSPLAKNLFHRAISESGVALTSVLVKKGDVKPLAEQIAITAGCKTTTSAVMVHCLRQKTEEELLETTLKMKFLSLDLQGDPRESQPLLGTVIDGMLLLKTPEELQAERNFHTVPYMVGINKQEFGWLIPMQLMSYPLSEGQLDQKTAMSLLWKSYPLVCIAKELIPEATEKYLGGTDDTVKKKDLFLDLIADVMFGVPSVIVARNHRDAGAPTYMYEFQYRPSFSSDMKPKTVIGDHGDELFSVFGAPFLKEGASEEEIRLSKMVMKFWANFARNGNPNGEGLPHWPEYNQKEGYLQIGANTQAAQKLKDKEVAFWTNLFAKKAVEKPPQTEHIEL
notes: purchased Ruid Liver Disease Research Co., Ltd. (Shanghai, China)
For the molecule B1, the results for the Km in [9] (appearance of dFdC) and in series [9] (disappearance of Cbz-dFdC) were 107.2 µM and 258.6 µM, respectively. For the same molecule, the Vmax/Km in series [9] (appearance of dFdC) was 36500 µL/min/mg; in series [9] (disappearance of Cbz-dFdC), 72700 µL/min/mg.
